Data on three compounds can be found in US6472348B1, “Pyridone derivatives and herbicides” (Kumiai Chemical Industry Co., Ltd., priority 1996, dated 2002).

The subject of data set [1] is pale smartweed (Po). The data set is described as follows: Test Example 9: crop plant selectivity by upland field foliage treatment (wheat), herbicidal effects. The data set is classed as in vivo. More on the design: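 grade of growth control; 5 = at least 90%; 4 = 70 to 90%; 3 = 50 to 70%; 2 = 30 to 50%; 1 = 10 to 30%; 0 = under 10%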. The conditions noted are these: dose 1.6 g ai/10a, 14th day after treatment. Here is the method: (§1) (Test on Crop Plant Selectivity by Upland Field Foliage Treatment)
(§2) In a plastic pot (surface area: 600 cm^2) filled with sand, wheat (Tr), pale smartweed (Po), slender amaranth (Am), common lambsquarters (Ch) and China jute (Ab) were sown and cultured in a green house for 2 weeks. […] The plants were then cultured in a green house, and the evaluation of the herbicidal effects and phytotoxicity was conducted on the 14th day after the treatment in accordance with the standards as identified in Table 47.

Data set [2] concerns slender amaranth (Am). The description is as above. The data set is classed as in vivo. More on the design: scale not given here. The conditions noted are these: dose 1.6 g ai/10a, 14th day after treatment. As to the method:
as §1, §2

For data set [3], the system named is common lambsquarters (Ch). The data set is described as above. The data set is classed as in vivo. More on the design: scale not given here. The conditions noted are these: dose 1.6 g ai/10a, 14th day after treatment. Here is the method:
as §1, §2

The test system of data set [4] is China jute (Ab). The description is as above. The data set is classed as in vivo. More on the design: scale not given here. The following applies: dose 1.6 g ai/10a, 14th day after treatment. Here is the method: as §1, §2
Data set [5] deals with pale smartweed (Po). The data set is described as follows: Test Example 2: herbicidal effects by upland field soil treatment.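 Further: grade of growth control; 5 = at least 90%; 4 = 70 to 90%; 3 = 50 to 70%; 2 = 30 to 50%; 1 = 10 to 30%; 0 = under 10%.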 Format: in vivo. The following applies: 100 g of the active ingredient per 10 ares. An excerpt:
(§3) (Test on Herbicidal Effects by Upland Field Soil Treatment)

Data set [6] concerns slender amaranth (Am). Described as above. The data set is classed as in vivo. The conditions noted are these: 100 g of the active ingredient per 10 ares.
Excerpt: as §3

Data set [7] deals with barnyardgrass (Ec). Described as above. Format: in vivo. The following applies: 100 g of the active ingredient per 10 ares.
Excerpt: as §3

The subject of data set [8] is common lambsquarters (Ch). The data set is described as above. The following applies: 100 g of the active ingredient per 10 ares. The data set is classed as in vivo.
Excerpt: as §3

The subject of the next data set is Digitaria ciliaris (Di). The description is as above. Format: in vivo. The conditions noted are these: 100 g of the active ingredient per 10 ares.
Excerpt: as §3

Data set [9] has as its system rice flatsedge (Ci). Described as above. The data set is classed as in vivo. The conditions noted are these: 100 g of the active ingredient per 10 ares.
Excerpt: as §3

In data set [10] the test system is wheat (Tr). The data set is described as follows: Test Example 9: crop plant selectivity by upland field foliage treatment (wheat), phytotoxicity.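 Further: grade of crop injury; 5 = at least 90%; 4 = 70 to 90%; 3 = 50 to 70%; 2 = 30 to 50%; 1 = 10 to 30%; 0 = under 10%.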 The following applies: dose 1.6 g ai/10a, 14th day after treatment. As to the method:
as §1, §2

For data set [11], the system named is pale smartweed (Po). Nature of the data set: Test Example 3: herbicidal effects by upland field foliage treatment. Format: in vivo. More on the design: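 grade of growth control; 5 = at least 90%; 4 = 70 to 90%; 3 = 50 to 70%; 2 = 30 to 50%; 1 = 10 to 30%; 0 = under 10%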. The method, boiled down:
(§4)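 Seeds → sand pot (120 cm^2) → soil cover → greenhouse 2 wk → foliar treatment → greenhouse → herbicidal score at 14 d post-treatment against graded standards.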

For data set [12], the system named is slender amaranth (Am). The data set is described as above. The data set is classed as in vivo. More on the design: scale not given here. The method, boiled down: as §4
Data set [13] relates to barnyardgrass (Ec). Described as above. The data set is classed as in vivo. More on the design: scale not given here. The method, boiled down:
as §4

Another data set concerns Diaitaria ciliaris (Di). Described as above. The data set is classed as in vivo. More on the design: scale not given here. The method, boiled down: as §4
The subject of data set [14] is common lambsquarters (Ch). The data set is described as above. The data set is classed as in vivo. More on the design: scale not given here. The procedure, abridged: as §4
In data set [15] the test system is rice flatsedge (Ci). Described as above. The data set is classed as in vivo. More on the design: scale not given here. The procedure, abridged:
as §4

The next data set has as its system bulrush (Sc). Nature of the data set: Test Example 1: herbicidal effects by paddy field soil treatment.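 Further: grade of growth control; 5 = at least 90%; 4 = 70 to 90%; 3 = 50 to 70%; 2 = 30 to 50%; 1 = 10 to 30%; 0 = under 10%.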 The data set is classed as in vivo. The following applies: 100 g of the active ingredient per 10 ares, 21st day after the application, index 0-5 of Table 47. The procedure, abridged:
(§5)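 Flooded paddy-soil pots (3 cm water) sown after puddling/leveling; treatment 100 g a.i./10 ares; greenhouse culture; herbicidal effect rated visually on a scoring scale at 21 d post-application.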

The subject of data set [16] is barnyardgrass (Ec). Described as above. Format: in vivo. The following applies: 100 g of the active ingredient per 10 ares, 21st day after the application, index 0-5 of Table 47. The method, boiled down:
as §5

The next data set relates to monochoria (Mo). The data set is described as above. Format: in vivo. The following applies: 100 g of the active ingredient per 10 ares, 21st day after the application, index 0-5 of Table 47. The procedure, abridged: as §5
The test system of data set [17] is wheat (Tr). The data set is described as follows: Test Example 5: crop plant selectivity by upland field soil treatment (wheat), phytotoxicity. The data set is classed as in vivo. More on the design: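 grade of crop injury; 5 = at least 90%; 4 = 70 to 90%; 3 = 50 to 70%; 2 = 30 to 50%; 1 = 10 to 30%; 0 = under 10%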. The following applies: dose 6.3 g ai/10a, 21st day after application. Here is the method: (§6) (Test on Crop Plant Selectivity by Upland Field Soil Treatment)
(§7) In a plastic pot (surface area: 600 cm^2) filled with sand, wheat (Tr), Diaitaria ciliaris (Di), green foxtail (Se), pale smartweed (Po), slender amaranth (Am), common lambsquarters (Ch) and China jute (Ab) were sown and covered with soil. […] The plants were then cultured in a green house, and the evaluation of the herbicidal effects and phytotoxicity was conducted on the 21st day after the application in accordance with the standards as identified in Table 47. Symbol—represents “not tested”.

For the next data set, the system named is green foxtail (Se). Nature of the data set: Test Example 5: crop plant selectivity by upland field soil treatment (wheat), herbicidal effects. More on the design: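 grade of growth control; 5 = at least 90%; 4 = 70 to 90%; 3 = 50 to 70%; 2 = 30 to 50%; 1 = 10 to 30%; 0 = under 10%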. The data set is classed as in vivo. The conditions noted are these: dose 6.3 g ai/10a, 21st day after application. Here is the method: as §6, §7
Data set [18] relates to pale smartweed (Po). The description is as above. The data set is classed as in vivo. More on the design: scale not given here. The conditions noted are these: dose 6.3 g ai/10a, 21st day after application. As to the method:
as §6, §7

The subject of data set [19] is slender amaranth (Am). The description is as above. More on the design: scale not given here. The conditions noted are these: dose 6.3 g ai/10a, 21st day after application. Format: in vivo. Here is the method:
as §6, §7

Data set [20] deals with common lambsquarters (Ch). Described as above. More on the design: scale not given here. Format: in vivo. The conditions noted are these: dose 6.3 g ai/10a, 21st day after application. Here is the method:
as §6, §7

Data set [21] concerns China jute (Ab). The description is as above. The data set is classed as in vivo. More on the design: scale not given here. The following applies: dose 6.3 g ai/10a, 21st day after application. As to the method: as §6, §7
Where [22] appears, read: 21st day after the application, index 0-5 of Table 47.
[23] abbreviates: 100 g of the active ingredient per 10 ares, evaluated on the 14th day after treatment.
Setting [24] is: evaluated on the 21st day after application.
[25] abbreviates: 100 g active ingredient per 10 ares, evaluated 14th day after treatment.
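Wherever Herbicidal effects Mo is given: grade of growth control; 5 = at least 90%; 4 = 70 to 90%; 3 = 50 to 70%; 2 = 30 to 50%; 1 = 10 to 30%; 0 = under 10%.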

`CCCCCOC(=O)COc1cc(-c2ccc(C(F)(F)F)n(C)c2=O)c(F)cc1Cl` [1-20]: the “Herbicidal effects Po” value in the data set on pale smartweed (Po) [1], in the data set on pale smartweed (Po) [5] (setting [22]) and in the data set on pale smartweed (Po) [11] (setting [23]) was 5 in each case. The “Herbicidal effects Am” value with slender amaranth (Am) [2], in the data set on slender amaranth (Am) [6] (setting [22]) and in the data set on slender amaranth (Am) [12] (setting [23]) was 5 in each case. The “Herbicidal effects Ch” value in data set [3], in data set [8] (setting [22]) and in data set [14] (setting [23]) was 5 each time. For the same compound, the “Herbicidal effects Ab” value in the data set with China jute (Ab) [4] is 5. The “Herbicidal effects Ec” value in the data set on barnyardgrass (Ec) [7] (setting [22]), in the data set on barnyardgrass (Ec) [13] (setting [23]) and with barnyardgrass (Ec) [16] was 5 throughout. Also, the “Herbicidal effects Di” value in the data set on Digitaria ciliaris (Di) (setting [22]) and in the data set on Diaitaria ciliaris (Di) (setting [23]) was 5 each time. Further, the “Herbicidal effects Ci” value in the data set with rice flatsedge (Ci) [9] (setting [22]) and in the data set with rice flatsedge (Ci) [15] (setting [23]) was 5 throughout. Moreover, in the data set on wheat (Tr) [10], the “Phytotoxicity Tr” value was 2. In addition, the “Herbicidal effects Sc” value in the data set with bulrush (Sc) is reported as 5. Also, in the data set with monochoria (Mo), the “Herbicidal effects Mo” value amounted to 5.

For the compound `CCCOC(=O)c1cc(-c2ccc(C(F)(F)F)n(C)c2=O)c(F)cc1Cl` [1-158], the “Herbicidal effects Po” value in the data set on pale smartweed (Po) [1], in the data set with pale smartweed (Po) [5] (setting [22]) and in the data set on pale smartweed (Po) [11] (setting [23]) was 5 in each case. Further, the “Herbicidal effects Am” value in the data set on slender amaranth (Am) [2], in the data set on slender amaranth (Am) [6] (setting [22]) and in the data set with slender amaranth (Am) [12] (setting [23]) was 5 throughout. Moreover, the “Herbicidal effects Ch” value in data set [3], in [8] (setting [22]) and in data set [14] (setting [23]) was 5 throughout. The “Herbicidal effects Ab” value in the data set on China jute (Ab) [4] is given as 5. Also, the “Herbicidal effects Ec” value in the data set on barnyardgrass (Ec) [7] (setting [22]), with barnyardgrass (Ec) [13] (setting [23]) and in the data set with barnyardgrass (Ec) [16] was 5 each time. Besides, the “Herbicidal effects Di” value in the data set on Digitaria ciliaris (Di) (setting [22]) and in the data set with Diaitaria ciliaris (Di) (setting [23]) was 5 each time. Moreover, the “Herbicidal effects Ci” value in the data set on rice flatsedge (Ci) [9] (setting [22]) and with rice flatsedge (Ci) [15] (setting [23]) was 5 in each case. Also, the “Phytotoxicity Tr” value in the data set with wheat (Tr) [10] came out at 2. In addition, the “Herbicidal effects Sc” value in the data set with bulrush (Sc) is recorded as 5. Moreover, the “Herbicidal effects Mo” value with monochoria (Mo) worked out at 5.

For the compound `C#CCN1C(=O)COc2cc(F)c(-c3cc(C)c(C(F)(F)F)n(C)c3=O)cc21` [Compound 2-2], the “Phytotoxicity Tr” value in the data set on wheat (Tr) [17] turned out to be 2. Besides, the “Herbicidal effects Se” value with green foxtail (Se) amounted to 5. Besides, the “Herbicidal effects Po” value with pale smartweed (Po) [18], in the data set on pale smartweed (Po) [5] (setting [24]) and in the data set with pale smartweed (Po) [11] (setting [25]) was 5 throughout. The “Herbicidal effects Am” value in the data set on slender amaranth (Am) [19], in the data set with slender amaranth (Am) [6] (setting [24]) and in the data set with slender amaranth (Am) [12] (setting [25]) was 5 in each case. Also, the “Herbicidal effects Ch” value in data set [20], in data set [8] (setting [24]) and in [14] (setting [25]) was 5 throughout. Moreover, the “Herbicidal effects Ab” value in the data set on China jute (Ab) [21] is recorded as 5. Besides, the “Herbicidal effects Ec” value in the data set with barnyardgrass (Ec) [7] (setting [24]), in the data set with barnyardgrass (Ec) [13] (setting [25]) and with barnyardgrass (Ec) [16] was 5 throughout. For the same compound, the “Herbicidal effects Di” value in the data set on Digitaria ciliaris (Di) (setting [24]) and with Diaitaria ciliaris (Di) (setting [25]) was 5 in each case. Further, the “Herbicidal effects Ci” value with rice flatsedge (Ci) [9] (setting [24]) and with rice flatsedge (Ci) [15] (setting [25]) was 5 throughout. Also, the “Herbicidal effects Sc” value with bulrush (Sc) came to 5. The “Herbicidal effects Mo” value with monochoria (Mo) was 5.
